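Values below derive from 48-hour exposures of cells grown in 96-well plates, with endpoints linearly interpolated between the two concentrations bracketing the appropriate inhibition level. TGI: concentration producing complete growth inhibition.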
Legend:
Experiment in all cases: inhibition of tumour cell growth, NCI panel, 48 h
[1] = tested on: HOP-18 NSCLC
[2] = tested on: NCI-H460 lung
[3] = tested on: A549 NSCLC
[4] = tested on: SF-295 CNS
[5] = tested on: SNB-78 CNS
[6] = tested on: SNB-75 CNS
[7] = tested on: RXF 393 renal
[8] = tested on: COLO 205 colon
[9] = tested on: TK-10 renal
[10] = tested on: OVCAR-4 ovarian
[11] = tested on: OVCAR-8 ovarian
[12] = tested on: UACC-257 melanoma
[13] = tested on: 786-0 renal
[14] = tested on: U251 CNS
[15] = tested on: NCI-H23 lung
[16] = tested on: MALME-3M melanoma
[17] = tested on: A498 renal
[18] = tested on: XF 498 CNS
[19] = tested on: NCI-H226 lung
[20] = tested on: HOP-62 NSCLC
[21] = tested on: SNB-19 CNS
[22] = tested on: OVCAR-5 ovarian
[23] = tested on: HCT-15 colon
[24] = tested on: EKVX NSCLC
[25] = tested on: HCC-2998 colon
[26] = tested on: HT29 colon
[27] = tested on: UACC-62 melanoma
[28] = tested on: OVCAR-3 ovarian
[29] = tested on: SK-OV-3 ovarian
[30] = tested on: HL-60(TB) leukemia
[31] = tested on: SK-MEL-28 melanoma
[32] = tested on: LXFL 529 NSCLC
[33] = tested on: M19-MEL melanoma
[34] = tested on: SW-620 colon
[35] = tested on: DLD-1 colon
[36] = tested on: KM20L2 colon
[37] = tested on: SK-MEL-5 melanoma
[38] = tested on: LOX IMVI melanoma
[39] = tested on: ACHN renal
[40] = tested on: KM12 colon
[41] = tested on: M14 melanoma
[42] = tested on: DMS 114 small cell lung
[43] = tested on: SF-268 CNS
[44] = tested on: CCRF-CEM leukemia
[45] = tested on: UO-31 renal
[46] = tested on: HOP-92 NSCLC
[47] = tested on: IGROV1 ovarian
[48] = tested on: SN12C renal
[49] = tested on: NCI-H522 lung
[50] = tested on: SF-539 CNS
[51] = tested on: HCT-116 colon
[52] = tested on: SK-MEL-2 melanoma
[53] = tested on: MOLT-4 leukemia
[54] = tested on: K-562 leukemia
[55] = tested on: DMS 273 small cell lung
[56] = tested on: CAKI-1 renal

CCCCCCCCCCCCCS(=O)(=O)NCC(N)=O gave a TGI [1] greater than 100 µM, a TGI [2] greater than 100 µM and a TGI [3] greater than 100 µM. For the same molecule, the TGI [4] was greater than 100 µM, the TGI [5] was greater than 100 µM and the TGI [6] was 74.7 µM. It also gave a TGI [7] greater than 100 µM, a TGI [8] greater than 100 µM and a TGI [9] greater than 100 µM. The TGI [10] was greater than 100 µM, the TGI [11] was greater than 100 µM and the TGI [12] was greater than 100 µM. The TGI [13] was greater than 100 µM, the TGI [14] was greater than 100 µM and the TGI [15] was greater than 100 µM. The TGI [16] was greater than 100 µM, the TGI [17] was greater than 100 µM and the TGI [18] was greater than 100 µM. It also gave a TGI [19] greater than 100 µM, a TGI [20] greater than 100 µM and a TGI [21] greater than 100 µM. The TGI [22] was greater than 100 µM, the TGI [23] was greater than 100 µM and the TGI [24] was greater than 100 µM. It also gave a TGI [25] greater than 100 µM, a TGI [26] greater than 100 µM and a TGI [27] greater than 100 µM. For the same molecule, the TGI [28] was greater than 100 µM, the TGI [29] was greater than 100 µM and the TGI [30] was greater than 100 µM. It also gave a TGI [31] greater than 100 µM, a TGI [32] greater than 100 µM and a TGI [33] greater than 100 µM. It also gave a TGI [34] greater than 100 µM, a TGI [35] greater than 100 µM and a TGI [36] greater than 100 µM. The TGI [37] was greater than 100 µM, the TGI [38] was greater than 100 µM and the TGI [39] was greater than 100 µM. It also gave a TGI [40] greater than 100 µM, a TGI [41] greater than 100 µM and a TGI [42] greater than 100 µM. The TGI [43] was greater than 100 µM, the TGI [44] was greater than 100 µM and the TGI [45] was greater than 100 µM. The TGI [46] was greater than 100 µM, the TGI [47] was greater than 100 µM and the TGI [48] was greater than 100 µM. For the same molecule, the TGI [49] was greater than 100 µM, the TGI [50] was greater than 100 µM and the TGI [51] was greater than 100 µM. The TGI [52] was greater than 100 µM.
With CCO/C(O)=c1/s/c(=C(\C#N)c2nc3ccccc3[nH]2)n(-c2ccccc2)c1=N the TGI [2] was greater than 100 µM, the TGI [3] was greater than 100 µM and the TGI [4] was greater than 100 µM. The TGI [5] was greater than 100 µM, the TGI [53] was greater than 100 µM and the TGI [6] was greater than 100 µM. The TGI [7] was greater than 100 µM, the TGI [8] was greater than 100 µM and the TGI [9] was greater than 100 µM. For the same molecule, the TGI [10] was greater than 100 µM, the TGI [11] was greater than 100 µM and the TGI [12] was greater than 100 µM. It also gave a TGI [13] greater than 100 µM, a TGI [54] greater than 100 µM and a TGI [14] greater than 100 µM. For the same molecule, the TGI [15] was greater than 100 µM, the TGI [16] was greater than 100 µM and the TGI [17] was greater than 100 µM. It also gave a TGI [18] greater than 100 µM, a TGI [19] greater than 100 µM and a TGI [55] greater than 100 µM. The TGI [20] was greater than 100 µM, the TGI [21] was greater than 100 µM and the TGI [22] was greater than 100 µM. It also gave a TGI [23] greater than 100 µM, a TGI [24] greater than 100 µM and a TGI [26] greater than 100 µM. It also gave a TGI [27] greater than 100 µM, a TGI [28] greater than 100 µM and a TGI [29] greater than 100 µM. It also gave a TGI [30] greater than 100 µM, a TGI [31] greater than 100 µM and a TGI [32] greater than 100 µM. For the same molecule, the TGI [33] was greater than 100 µM, the TGI [34] was greater than 100 µM and the TGI [35] was greater than 100 µM. For the same molecule, the TGI [36] was greater than 100 µM, the TGI [37] was greater than 100 µM and the TGI [38] was greater than 100 µM. It also gave a TGI [39] greater than 100 µM, a TGI [41] greater than 100 µM and a TGI [43] greater than 100 µM. For the same molecule, the TGI [44] was greater than 100 µM, the TGI [45] was greater than 100 µM and the TGI [46] was greater than 100 µM. The TGI [47] was greater than 100 µM, the TGI [48] was greater than 100 µM and the TGI [49] was greater than 100 µM. For the same molecule, the TGI [50] was greater than 100 µM, the TGI [56] was greater than 100 µM and the TGI [51] was greater than 100 µM. It also gave a TGI [52] greater than 100 µM.

— PubChem BioAssay (NCI)
